Legend:
Assay type in all cases: in vivo
[1] = system: corn (Krasnodar 385 MV variety); assay: Corn seed treatment with BHMPA salts: germinating power; details: corn seeds; solution concentration 1 · 10^−7%
Method: (§1) Experimental versions—soaking seeds in BHMPA solutions and solutions of BHMPA Ca, Mg, Na, Co, Mn, Cu, and Zn salts at 1·10^−6-1·10^−12% concentrations (doses). The studies were conducted in laboratory in Petri dishes; seed bed—two layers of filter paper. 50 seeds soaked in water (control) and in the solutions of the tested compounds (experimental) were placed into each dish. Wheat, corn, and rice seeds were exposed for one hour.
(§2) Seed germination energy and rate were calculated in percent as an arithmetic mean of the four experimental results (germination energy on the 4th day, wheat germination on the 8th day, rice and corn germination—on the 7th day). Germination was determined based on the germinating power indicators (length of the roots and sprouts and their wet and dry mass per 100 shoots).
(§3) The effect of pre-sowing seed treatment with the claimed BHMPA salts of biogenic metals was studied on winter wheat (Vershin variety), corn (Krasnodar 385 MV variety), and rice (Diamant variety).
(§4) The above data describe the seed viability only at the initial stage of germination, while the germination ability at the later stage of germination is defined by the initial germinating power. The method for the determination of the germinating power comprises measuring the height of the sprouts and primary roots, as well as the biomass and the dry mass thereof per 100 seedlings. [M. A. Kartuzova. Initial Germinating Power as Method of Biological Assessment of Seed Quality. Selection and Seed Farming, #2, 1953].

[2] = system: winter wheat (Kazan 560 variety); assay: Field study: winter wheat seed treatment and spraying, yield and quality of the grain; details: for Field germination, % / Grain mass from the main ear / Number of grains in an ear / Viability, % / Yield, dt/ha: winter wheat
Method: Field studies were conducted for the BHMPA Mg-salt. The effect of treatment winter wheat seeds (Kazan 560 variety) with BHMPA Mg-salt solutions on the yield and quality of the grain was examined. The field experiment was conducted at a branch of a fallow rotation. The seeds were sowed on Sep. 1, 2015, in an area covering 1.7 hectares of the experimental field located at the experimental base of Tatarstan Research Institute of Agriculture. For comparison, the seeds were treated with the BHMPA Mg-salt solution and the known growth-regulator Melaphen at the same concentrations, optimum for Melaphen.
The experiment was conducted for the following variants: • 1. Control (no seed treatment); • 2. Seed treatment with the BHMPA Mg-salt solution at a 1·10^−7% concentration; • 3. Seed treatment with the BHMPA Mg-salt solution at a 1·10^−7% concentration+spraying with the BHMPA Mg-salt solution at a 1·10^−8% concentration upon vegetation during spring tillering and earing phases; • 4. Seed treatment with the growth regulator Melaphen at a 1·10^−7% concentration; • 5. Seed treatment with Melaphen at a 1·10^−7% concentration and spraying with Melaphen at a 1·10^−8% concentration upon vegetation during spring tillering and earing phases.
The seeds were treated with the experimental compounds together with a seed disinfectant at a rate of 10 ml/T. The vegetating plants were treated at a rate of 5 ml/ha. Identical field operations appropriate for that zone as well as plant protection measures against weeds and disease, were applied in all cases.
Results of field experiments with BHMPA Mg-salt as the main growth-regulating component of said pre-sowing seed treatment combined with additional treatment of winter wheat plants with other claimed BHMPA salts, are presented in Table XXXV.

[3] = system: spring wheat (Ekada-66 variety); assay: Spring wheat seed treatment: germination rate and plant height (laboratory, Petri dishes); details: spring wheat
Method: (§5) Control—Soaking Seeds in Water;
as §1
(§6) Analysis was conducted according to the government standards GOST 12038-84 “Crop seeds. Technical conditions for determining the germination energy and germination rate”, GOST 12044-93 “Crop seeds. Methods for determining disease contamination.”
as §2
The study of the effect of pre-sowing seed treatment with BHMPA was conducted on winter wheat (Kazan-500 variety) and spring wheat (Ekada-66 variety).

rice (Diamant variety) [4] = assay: Rice seed treatment with BHMPA salts: germination energy and germination rate
Method: as §5, §1, §6, §2, §3

[5] = system: corn (Krasnodar 385 MV variety); assay: Corn seed treatment with BHMPA salts: germination energy and germination rate; details: comparative study vs Melaphen, 1·10^−7% solution
Method: as §5, §1, §6, §2, §3

[6] = system: winter wheat (Vershin variety); assay: Winter wheat seed treatment with BHMPA salts: germination energy and germination rate; details: winter wheat; comparative study vs Melaphen; 1·10^−7% solution
Method: as §5, §1, §6, §2, §3

[7] = system: winter wheat (Vershin variety); assay: Winter wheat seed treatment with BHMPA salts: germinating power (length and mass of roots and sprouts); details: comparative study, 1·10^−7% solution
Method: as §1, §2, §3, §4

rice (Diamant variety) [8] = assay: Rice seed treatment with BHMPA salts: germinating power; details: rice seed treatment, comparison with Melaphen (Table XXXIII), solution 1 · 10^−8%
Method: as §1, §2, §3, §4

[9] = seed treatment 1 · 10^−7% + spraying plants with the same substance 1 · 10^−8%
[10] = rice seed treatment, solution 1 · 10^−8%
[11] = rice, comparative study vs Melaphen, 1·10^−8% solution

With `Nc1nc(N)nc(N)n1.O=P(O)(CO)CO` [Melaphen, melamine salt of BHMPA, reference compound] the “Length, root” value [1] was 8.4 cm, the “Length, root, + % to control” value [1] was 42% and the “Length, sprout” value [1] was 4.3 cm. The “Length, sprout, + % to control” value [1] was 59%, the “Mass, dry, root” value [1] was 2.42 g/100 plantlings and the “Mass, dry, root, + % to control” value [1] was 37.5%. The “Mass, dry, sprout” value [1] was 1.86 g/100 plantlings, the “Mass, dry, sprout, + % to control” value [1] was 37% and the “Mass, wet, root” value [1] was 12.02 g/100 plantlings. For the same molecule, the “Mass, wet, root, + % to control” value [1] was 37%, the “Mass, wet, sprout” value [1] was 10.23 g/100 plantlings and the “Mass, wet, sprout, + % to control” value [1] was 44%. The “yield of winter wheat” value ([2]; field, seeds treated at 1·10^−7% and plants sprayed with 1·10^−8%, control 21.7 dt/ha) was 29.3 dt/ha, the “Field germination, %” value ([2]; seed treatment 1 · 10^−7%) was 71% and the “Grain mass from the main ear” value ([2]; seed treatment 1 · 10^−7%) was 1.0 g. The “Number of grains in an ear” value ([2]; seed treatment 1 · 10^−7%) was 27, the “Viability, %” value ([2]; seed treatment 1 · 10^−7%) was 74% and the “Yield, dt/ha” value ([2]; seed treatment 1 · 10^−7%) was 28.0 dt/ha. For the same molecule, the “Field germination, %” value [2, 9] was 71%, the “Grain mass from the main ear” value [2, 9] was 1.2 g and the “Number of grains in an ear” value [2, 9] was 30. The “Viability, %” value [2, 9] was 62%, the “Yield, dt/ha” value [2, 9] was 29.3 dt/ha and the “Germination rate % 4th day” value ([3]; 1·10^−7% solution) was 54.0%. The “Germination rate % 8th day” value ([3]; 1·10^−7% solution) was 82.0%, the Plant height ([3]; 1·10^−7% solution) was 14.8 cm and the “Germination rate % 4th day” value ([3]; 1·10^−9% solution) was 52.0%. For the same molecule, the “Germination rate % 8th day” value ([3]; 1·10^−9% solution) was 81.0%, the Plant height ([3]; 1·10^−9% solution) was 14.5 cm and the “Germination energy, %” value (rice (Diamant variety) [4]; [10]) was 89.5%. The “Germination rate, %” value (rice (Diamant variety) [4]; [10]) was 96.3%, the Germination energy (rice (Diamant variety) [4]; [11]) was 89.5% and the Germination rate (rice (Diamant variety) [4]; [11]) was 96.3%. For the same molecule, the Germination energy [5] was 90.7%, the Germination rate [5] was 97.7% and the Germination energy [6] was 95.0%. For the same molecule, the Germination rate [6] was 98.3%, the Length, root [7] was 10.3 cm and the “Length, root, + % to control” value [7] was 18%. The Length, sprout [7] was 7.3 cm, the “Length, sprout, + % to control” value [7] was 18% and the Mass, dry, root [7] was 0.72 g/100 plantlings. The “Mass, dry, root, + % to control” value [7] was 16%, the Mass, dry, sprout [7] was 0.59 g/100 plantlings and the “Mass, dry, sprout, + % to control” value [7] was 16%. For the same molecule, the Mass, wet, root [7] was 6.02 g/100 plantlings, the “Mass, wet, root, + % to control” value [7] was 66% and the Mass, wet, sprout [7] was 5.27 g/100 plantlings. For the same molecule, the “Mass, wet, sprout, + % to control” value [7] was 33%, the “Length, root” value (rice (Diamant variety) [8]) was 7.6 cm and the “Length, root, + % to control” value (rice (Diamant variety) [8]) was 58%. The “Length, sprout” value (rice (Diamant variety) [8]) was 4.9 cm, the “Length, sprout, + % to control” value (rice (Diamant variety) [8]) was 88% and the “Mass, dry, root” value (rice (Diamant variety) [8]) was 0.29 g/100 plantlings. The “Mass, dry, root, + % to control” value (rice (Diamant variety) [8]) was 38%, the “Mass, dry, sprout” value (rice (Diamant variety) [8]) was 0.35 g/100 plantlings and the “Mass, dry, sprout, + % to control” value (rice (Diamant variety) [8]) was 40%. For the same molecule, the “Mass, wet, root” value (rice (Diamant variety) [8]) was 1.57 g/100 plantlings, the “Mass, wet, root, + % to control” value (rice (Diamant variety) [8]) was 60% and the “Mass, wet, sprout” value (rice (Diamant variety) [8]) was 2.62 g/100 plantlings. The “Mass, wet, sprout, + % to control” value (rice (Diamant variety) [8]) was 73.5%.

Source: patent US10781224B2, “Bis(oxymethyl)phosphinic acid and biogenic metal salts thereof as regulators of plant growth and development” (priority 2016, dated 2020)
